Experimental data published in patent publication US12497614B2, “Compositions and methods for editing beta-globin for treatment of hemaglobinopathies” (Vertex Pharmaceuticals Incorporated, priority 2020, dated 2025).

What was measured:
CD34+ HSPCs [1] = assay: Erythrocyte functionality: enucleation and cell-surface markers by flow cytometry (Example 5); assay type: cell-based, human; details: T107 RNP+AAV.310 alone or combined with the inhibitor
Experimental: Following editing, cells were differentiated to erythrocytes.
The ability of edited cells to differentiate to functional erythrocytes was assessed by determining expression of erythrocyte-associated cell surface markers and enucleation using flow cytometry on day 12 and 18 post editing. Briefly, 4×10^5 cells were obtained, and half were stained for erythrocyte cell-surface markers and half were used for detection of enucleation. For staining cell-surface markers, the cells were incubated in PBS containing 1% human serum albumin (PBS-A) and an antibody cocktail of anti-CD233(BRIC6-Band3)-FITC, anti-CD71-PE, anti-CD235a(GlyA)-PE/Cy7, and anti-CD49d (α4)-VioBlue. For detection of enucleation, 2 drops of NucRed nuclear staining reagent was added to 1 mL PBS-A, and 100 μL was added to plated cells. Following incubation, both cell samples were labeled with Sytox Blue solution (1:1000 dilution in PBS-A) for live/dead analysis. Samples were then assessed by flow cytometry

[2] = system: HBB gene locus in CD34+ HSPCs; assay: HDR efficiency with DNA-PK inhibitors for editing the HBB gene in CD34+ HSPCs; NGS (Example 4); assay type: cell-based, human
Experimental: The cells were transduced with AAV donor template for 1 hour at 37° C. prior to electroporation. AAV-encoded homology donor template referred to as “AAV.310”, which is identified by sequence in Table 8. The AAV.310 donor template encodes a SCD mutation, specifically valine at the 6th codon downstream the HBB start codon (E6V). The cells were treated with AAV at a dose of 10,000 MOI.
Edited cells were evaluated for viability using trypan blue, and for incorporation of gene-edits at 2 days post-electroporation. The efficiency of HDR repair for introducing an E6V mutation in the HBB gene was quantified by NGS assay as described in Example 1, and the frequency of INDELs induced at the T107 cut site was also evaluated by NGS analysis.
The INDELs species identified in edited cells were further evaluated to determine frequency of repair by NHEJ or MMEJ repair pathways. An INDEL of ±1 nt was considered due to NHEJ repair; a deletion of −9 nt was considered due to MMEJ repair based on the microhomology present on either side of the T107 cut site. Based on percentage of total reads corresponding to these INDEL species, the ratio of gene edits due to NHEJ and MMEJ repair was evaluated. […] Thus, reduced frequency of INDELs with treatment of compound 296 or i53 is largely due to suppression of the NHEJ repair pathway.

CD34+ HSPCs [3] = assay: Cell growth and viability (trypan blue) of edited CD34+ HSPCs during differentiation (Example 5); details: day 0 to day 18 post-editing; inhibitor 1 or 3 μM, i53 1 μg mRNA; data not shown
Experimental: Briefly, frozen CD34+ HSPCs isolated from Plerixafor mobilized peripheral blood, obtained from healthy human donors were thawed. The cells were seeded in CD34 cell media at a cell density of 2×10^5 cells/mL. Cells were cultured at 37° C. under normoxic conditions (i.e., oxygen 20%). Gene-editing was performed following two days of in vitro culture. For editing, 5×10^5 CD34+ HSPCs were electroporated with RNP containing 200 μg/ml Cas9 and 200 μg/ml T107 sgRNA. […] The cells were transduced with AAV.310, 1 hour prior to electroporation, at a dose of 10,000 MOI. The cells were plated in CD34 cell medium containing Compound 296 or Compound 984 immediately following the electroporation, at a concentration of 1 μM or 3 μM for 48 hours. […] Post electroporation cells were resuspended in CD34 cell medium at a density of 2-5×10^5 cells/ml and incubated at 37° C. for 48 hours.
Following editing, cells were differentiated to erythrocytes. Briefly, cells were plated in fresh CD34 media at a density of 2×10^5 cells/mL, and re-plated at similar density in fresh CD34 media on days 3 and 5 post-editing. On day 7 and 10 post-editing, the cells were incubated in Phase II media at a density of 2.5×10^5 and 1×10^6 cells/mL respectively. On day 12 post-editing, the cells were incubated in Phase III media at a density of 1×10^6 cells/mL. On day 14 cells were plated at a density of 2×10^6 cells/ml in Phase III media and maintained till day 18 at 37° C. Cell growth was measured at various time points between day 0 and day 18 post-editing, and the percentage of viable cells was measured by staining with tryphan blue.

HBB gene in CD34+ HSPCs = assay: In vitro editing with T107 RNP, AAV.310 or AAV.320 and inhibitors before transplantation; NGS and cell growth (Example 6); details: for change in cell growth if cells were edited with the inhibitor: T107 RNP+AAV.310 or AAV.320, data not shown; for frequency of HDR relative to editing with T107 RNP and AAV only / frequency of INDELs relative to editing with T107 RNP and AAV only: i53 1 μg mRNA, Compound 984 1 μM or 3 μM
Experimental: Briefly, frozen CD34+ HSPCs isolated from plerixafor-mobilized peripheral blood obtained from two healthy human donors were thawed and seeded in media with components as described in Example 1. The cells were maintained in culture, and gene-editing was performed following two days of culture. For editing, 5×10^5 CD34+ HSPCs were electroporated with RNP containing 20 μg SpCas9 and 20 μg T107 sgRNA. Electroporation was performed using the CA-137 program of the Lonza Amaxa™ 4D-Nucleofector™. The cells were transduced with AAV.310 or AAV.320 for 1 hour at 37° C. prior to electroporation at a dose of 10,000 MOI. The cells were electroporated and immediately plated in medium containing Compound 984 at 1 μM or 3 μM.
Cells were maintained in culture for two days following electroporation. Fold change in cell-growth between day 0 and day 2 post-electroporation was quantified.
Additionally, gene-edits in HBB were evaluated in CD34+ HSPCs following two days of in vitro culture.

NBSGW mice = assay: In vivo engraftment and persistence of gene-edits of CD34+ HSPCs edited with T107 RNP, AAV and inhibitors (Example 6); set-up: species or system mouse; details: 16 weeks, with or without inhibitor
Experimental: Following two days of in vitro culture, HSPCs were administered by intravenous injection to NBSGW mice at a dose of 0.5×10^6 cells per mouse. Recipient mice were treated with sublethal irradiation (100 cGy) at 1 day prior to administration of HSPCs.
Blood and bone marrow were extracted at 16 weeks following HSPC administration and were evaluated for presence of human hematopoietic cells using flow cytometry as described in Example 2. Additionally, the lineage of human CD45+ cells was determined using markers for human B cells, T cells, myeloid cells, and HSPCs as described in Example 2.
The long term persistence of gene-edited (in HBB gene) HSPCs was evaluated in genomic DNA extracted from mouse bone marrow collected at 16 weeks. The frequency of donor template-encoded gene-edits incorporated in HBB by HDR and the frequency of INDELs at the T107 cut site were quantified by NGS, and are shown in FIG. 7I and FIG. 7J respectively.

[4] = T107 RNP + AAV.310 + 0.012 μM compound, 48 hours
[5] = T107 RNP + AAV.310 + 0.037 μM compound, 48 hours
[6] = T107 RNP + AAV.310 + 0.04 μM compound, 48 hours
[7] = T107 RNP + AAV.310 + 3.3 μM compound, 48 hours
[8] = T107 RNP + AAV.310 + 10 μM compound, 48 hours
[9] = T107 RNP + AAV.310 + i53 (1 μg mRNA)

[2H]c1nc(C)nc([2H])c1-c1cc(NC[C@@H](C)c2cccc3c(C(=O)NC)ccnc23)ncn1 [Compound 984]
levels of enucleation vs control cells (CD34+ HSPCs [1]): comparable
% HDR [2, 4]: 44%
% INDELs [2, 4]: 39%
% HDR [2, 5]: 51%
% INDELs [2, 5]: 36%
% HDR [2, 6]: 42%
% INDELs [2, 6]: 40%
% HDR [2, 7]: 49%
% INDELs [2, 7]: 30%
% HDR [2, 8]: 48%
% INDELs [2, 8]: 33%
reduction of the frequency of INDELs at the T107 cut site compared to control cells ([2]; T107 RNP+AAV.310 with DNA-PK inhibitor): approximately 1.6 fold
cell growth over time or percent viability vs T107 RNP+AAV.310 edited cells (CD34+ HSPCs [3]): No difference
change in cell growth if cells were edited with the inhibitor (HBB gene in CD34+ HSPCs): no substantial change
frequency of HDR relative to editing with T107 RNP and AAV only (HBB gene in CD34+ HSPCs): increased
frequency of INDELs relative to editing with T107 RNP and AAV only (HBB gene in CD34+ HSPCs): decreased
percent chimerism in mouse bone marrow and blood (NBSGW mice): comparable

i53: polypeptide inhibitor of 53BP1 (SEQ ID NO: 11), introduced as an mRNA-encoded protein (ORF SEQ ID NO: 10)
levels of enucleation vs control cells (CD34+ HSPCs [1]): comparable
% HDR [2, 9]: 35%
% INDELs [2, 9]: 42%
INDEL species due to MMEJ repair (deletion of −9 nt) ([2]; T107 RNP+AAV.310, Compound 296 at 10 μM, i53 at 1 μg mRNA): did not affect
cell growth over time or percent viability vs T107 RNP+AAV.310 edited cells (CD34+ HSPCs [3]): No difference
change in cell growth if cells were edited with the inhibitor (HBB gene in CD34+ HSPCs): no substantial change
frequency of HDR relative to editing with T107 RNP and AAV only (HBB gene in CD34+ HSPCs): increased
frequency of INDELs relative to editing with T107 RNP and AAV only (HBB gene in CD34+ HSPCs): decreased
percent chimerism in mouse bone marrow and blood (NBSGW mice): comparable
